Measurements taken from ChEMBL document CHEMBL1150463, “Identification of simpler analogs of neurotensin(913) which retain antinociceptive activity” (Bioorg Med Chem Lett, 1993).
Where a SMILES comes first, the peptide text is derived from it. [ ]: non-standard residue; d: D form. The star is where a group is joined. Orn = NCCC[C@H](N)C(=O)O; Nva = CCC[C@H](N)C(=O)O; Ahx = NCCCCCC(=O)O; X1 = CC(C)CCO*

Columns and labels:
[1] = test system: Mus musculus; test: Antinociceptive activity using the mouse phenylquinone writhing assay with i.c.v. administration; type: functional
[2] = In vitro affinity for the neurotensin receptor on mouse brain membranes.; type: tissue-based

Molecule	ED50 [1]	Ki [2] [nM]
NC(N)=NCCC[C@H](NC(=O)[C@@H](N)CCCN=C(N)N)C(=O)O (H-Arg-Arg-OH)	>50 ug mouse-1	> 100000
H-KAYIL-OH	>50 ug mouse-1	> 10000
H-APYIL-OH	<50 ug mouse-1	5900
CC[C@@H](C)[C@H](NC(=O)[C@H](Cc1ccc(O)cc1)NC(=O)[C@@H]1CCCN1)C(=O)O	>50 ug mouse-1	> 1000
CC[C@H](C)[C@H](NC(=O)[C@H](Cc1ccc(O)cc1)NC(=O)[C@@H]1CCCN1C(=O)[C@@H](N)CCCCN)C(=O)OCCC(C)C (H-KPYI-X1)		> 10000
CC[C@H](C)[C@H](N)C(=O)N[C@@H](CC(C)C)C(=O)O (H-Ile-Leu-OH)	>50 ug mouse-1	> 1000
CC[C@H](C)[C@H](NC(=O)[C@H](Cc1ccc(O)cc1)NC(=O)[C@@H]1CCCN1C(=O)[C@@H](N)CCCN=C(N)N)C(=O)N[C@@H](CC(C)C)C(=O)O	0.0201 ug mouse-1	73
CC[C@@H](C)[C@H](NC(=O)[C@H](Cc1ccc(O)cc1)NC(=O)[C@@H]1CCCN1C(=O)[C@H](CCCNC(=N)N)NC(=O)[C@@H](N)CCCNC(=N)N)C(=O)N[C@@H](CC(C)C)C(=O)O		4
H-KPYAL-OH	>50 ug mouse-1	4200
NC(N)=NCCC[C@H](N)C(=O)N1CCC[C@H]1C(=O)N[C@@H](Cc1ccc(O)cc1)C(=O)O (H-Arg-Pro-Tyr-OH)	55 ug mouse-1	> 10000
CCC[C@H](N)C(=O)N1CCC[C@H]1C(=O)N[C@@H](Cc1ccc(O)cc1)C(=O)N[C@H](C(=O)N[C@@H](CC(C)C)C(=O)O)[C@@H](C)CC (H-[Nva]PYIL-OH)	>50 ug mouse-1	3000
CC[C@H](C)[C@H](NC(=O)[C@H](Cc1ccc(O)cc1)NC(=O)[C@@H]1CCCN1C(=O)[C@@H](N)CCCN)C(=O)N[C@@H](CC(C)C)C(=O)O (H-[Orn]PYIL-OH)	20 ug mouse-1	520
CC[C@H](C)[C@H](NC(=O)[C@H](Cc1ccc(O)cc1)NC(=O)[C@@H]1CCCN1C(=O)[C@@H](N)CCCN=C(N)N)C(=O)O (H-RPYI-OH)	>=50 ug mouse-1	> 1000
NC(N)=NCCC[C@H](NC(=O)[C@@H](N)CCCN=C(N)N)C(=O)N1CCC[C@H]1C(=O)O (H-Arg-Arg-Pro-OH)	>=500 ug mouse-1	
CC[C@H](C)[C@H](NC(=O)[C@@H](N)Cc1ccc(O)cc1)C(=O)O (H-Tyr-Ile-OH)	>50 ug mouse-1	> 1000
H-KPYIL-OH	8 ug mouse-1	690
NC(N)=NCCC[C@H](N)C(=O)N1CCC[C@H]1C(=O)O (H-Arg-Pro-OH)	>50 ug mouse-1	> 10000
H-KPAIL-OH	>50 ug mouse-1	> 10000
CC[C@H](C)[C@H](NC(=O)[C@H](Cc1ccc(O)cc1)NC(=O)[C@@H]1CCCN1C(=O)[C@H](CCCNC(=N)N)NC(=O)[C@@H](N)CCCNC(=N)N)C(=O)N[C@@H](CC(C)C)C(=O)O	0.092 ug mouse-1	
H-KPYIA-OH	>50 ug mouse-1	> 10000
CC[C@H](C)[C@H](NC(=O)[C@H](Cc1ccc(O)cc1)NC(=O)[C@@H]1CCCN1)C(=O)N[C@@H](CC(C)C)C(=O)O (H-PYIL-OH)	>50 ug mouse-1	> 1000
CC[C@H](C)[C@H](NC(=O)[C@H](Cc1ccc(O)cc1)NC(=O)[C@@H]1CCCN1C(=O)CCCCCN)C(=O)N[C@@H](CC(C)C)C(=O)O (H-[Ahx]PYIL-OH)	1.3 ug mouse-1	1300
O=C(O)[C@H](Cc1ccc(O)cc1)NC(=O)[C@@H]1CCCN1 (H-Pro-Tyr-OH)	>50 ug mouse-1	13000
CC[C@H](C)[C@H](NC(=O)[C@@H](N)Cc1ccc(O)cc1)C(=O)N[C@@H](CC(C)C)C(=O)O	>50 ug mouse-1	> 10000
